Test system in one data set: not given
Experiment: not given
Conditions: not given
For orientation: melting point means the temperature of the solid-liquid transition. Regarding `CNC(=O)Nc1cc(C(C)=O)c(O)cc1OC` [Compound A1, 1–(5-acetyl-4-hydroxy-2-methoxyphenyl)-3-methylurea], the melting point was in the range of 211 to 213 °C.
Same read-out and setting: the figure for `COc1cc(O)c(C(C)=O)cc1NC(=O)N1CCN(C)CC1` [Compound A10, N-(5-acetyl-4-hydroxy-2-methoxyphenyl)-4-methylpiperazine-1-carboxamide] is 141 to 142 °C.
As to `COc1cc(O)c(C(C)=O)cc1NC(=O)NCc1ccco1` [Compound C7, 1–(5-acetyl-4-hydroxy-2-methoxyphenyl)-3-(furan-2-ylmethyl) urea], the melting point lay within 231 to 232 °C.
With `COc1cc(O)c(C(C)=O)cc1NC(=O)NCCc1ccc(F)cc1` [Compound D2, 1–(5-acetyl-4-hydroxy-2-methoxyphenyl)-3–(4-fluorophenethyl) urea], the melting point lay in the range of 224 to 225 °C.

Test system in another data set: not listed separately
The data set can be described thus: Human liver microsomes stability assay in vitro. It counts as in vitro ADME. The settings on record: human. Here is the method: The livers were homogenised initially in a Tris (0.1 M)/KCl (0.1 M)/EDTA (1 mM)/butylated sodium hydroxytoluene (BHT) (0.02 mM) buffer. Add 1.5 µL control/test compound B12 working solution to 238.5 µL liver microsome working solution, gently mix. Pre-incubate at 37 °C for 5 min. Start the reaction by adding 60 µL NADPH working solution. Mix by pipetting up and down. At each time point: 0, 5, 15, 30 and 60 min, remove 30 µL of reaction mixture to 300 µL of quenching solution. Vortex vigorously for ∼1 min and centrifuge at 4000 rpm at 4 °C for 15 min. Remove 100 µL of the supernatant and mixed with 100 µL distilled water for LC-MS/MS analysis.
`COc1ccc2c(c1)[C@]13CCCC[C@@H]1[C@H](C2)N(C)CC3` [Dextromethorphan, reference compound] showed a CLhep of 13.7 mL/min/kg.

The same data set, now with this note: human liver microsomes.
Usually microsomal CLint stands for a measure of how fast metabolising enzymes remove a compound, apart from limits set by blood flow. A low value points to slow turnover. For `COc1ccc2c(c1)[C@]13CCCC[C@@H]1[C@H](C2)N(C)CC3` [Dextromethorphan, reference compound], the T1/2 was 39.5 min and the intrinsic metabolic clearance (microsomal CLint) came out at 35.1 µL/min/mg.

A further data set deals with LPS-induced nitric oxide production in RAW264.7 cells. The data set can be described thus: LPS-induced NO production, Griess Reagent assay. To be noted: 10 µM. Type of data set: cell-based, mouse. The protocol: RAW264.7 cells (7 × 10^4 cells/well) were seeded into 48-well plate and used for experiments after 24 h. […] After 24 h collect cell supernatant, NO production was measured using Griess Reagent assay (Beyotime). Griess reagent were mixed at a ratio of 1:1, and reacted at room temperature for 15 min. Measurement of absorbance at […] with enzyme reader. At least three independent experiments were performed for the determination of IC50 values, which were shown as mean ± SD. All experimental data were analysed by using GraphPad Prism software, version 8.0 (GraphPad Inc.).
On to “1–(5-acetyl-2-methoxyphenyl)-3–(4-fluorophenyl) urea [Compound B6]”, for which the “Inhibitory activity on LPS-induced NO secretion, in words” value was “moderate inhibitory activity”.
On the same count and under the same terms, the entry for “1–(5-acetyl-2-methoxyphenyl)-3–(2-fluorophenyl) urea [Compound B7]” is “weak to moderate inhibitory activity”; for “1–(5-acetyl-2-methoxyphenyl)-3–(4-methoxyphenyl) urea [Compound B10]” it is “moderate inhibitory activity”.

The same data set, now with this note: LPS (0.5 μg/mL) 24 h.
As a reminder, the IC50 is the concentration needed to halve the response being measured. For the compound “1–(5-acetyl-2-methoxyphenyl)-3–(4-fluorophenyl) urea [Compound B6]”, the 50% inhibitory concentration (IC50) was > 10 µM.
Turning to “1–(5-acetyl-2-methoxyphenyl)-3–(2-fluorophenyl) urea [Compound B7]”, the IC50 is > 10 µM.
Still for that read-out and setting: the value for “1–(5-acetyl-2-methoxyphenyl)-3–(4-methoxyphenyl) urea [Compound B10]” was > 10 µM; that for “1–(5-acetyl-2-methoxyphenyl)-3–(4-fluorobenzyl) urea [Compound C4]” was > 10 µM.

Still in this data set, the particulars now being: Mus musculus, LPS (0.5 μg/mL) 24 h.
`CNC(=O)Nc1cc(C(C)=O)c(O)cc1OC` [Compound A1, 1–(5-acetyl-4-hydroxy-2-methoxyphenyl)-3-methylurea]: the concentration for half-maximal inhibition (IC50) was > 10 µM.
Still for that read-out and setting: the figure for `COc1cc(O)c(C(C)=O)cc1NC(=O)N1CCN(C)CC1` [Compound A10, N-(5-acetyl-4-hydroxy-2-methoxyphenyl)-4-methylpiperazine-1-carboxamide] is > 10 µM; for `COc1cc(O)c(C(C)=O)cc1NC(=O)NCc1ccco1` [Compound C7, 1–(5-acetyl-4-hydroxy-2-methoxyphenyl)-3-(furan-2-ylmethyl) urea] it is > 10 µM.
On the same count and under the same terms, the figure for `COc1cc(O)c(C(C)=O)cc1NC(=O)NCCc1ccc(F)cc1` [Compound D2, 1–(5-acetyl-4-hydroxy-2-methoxyphenyl)-3–(4-fluorophenethyl) urea] is > 10 µM.

Still in this data set, the particulars now being: Mus musculus, compounds 10 μM, 1 h, then LPS (0.5 μg/mL) 24 h, read-out: Inhibition rate±SD (%) against NO production.
A word on the inhibition: it is the relative decrease from the control value, in per cent. In the case of `CNC(=O)Nc1cc(C(C)=O)c(O)cc1OC` [Compound A1, 1–(5-acetyl-4-hydroxy-2-methoxyphenyl)-3-methylurea], the inhibition at 10 µM stood at 20.1 ± 6.12%.
Same read-out and setting: the figure for `COc1cc(O)c(C(C)=O)cc1NC(=O)N1CCN(C)CC1` [Compound A10, N-(5-acetyl-4-hydroxy-2-methoxyphenyl)-4-methylpiperazine-1-carboxamide] is 26 ± 5.12%; for `COc1cc(O)c(C(C)=O)cc1NC(=O)NCc1ccco1` [Compound C7, 1–(5-acetyl-4-hydroxy-2-methoxyphenyl)-3-(furan-2-ylmethyl) urea] it is 26.2 ± 5.13%.
As for `COc1cc(O)c(C(C)=O)cc1NC(=O)NCCc1ccc(F)cc1` [Compound D2, 1–(5-acetyl-4-hydroxy-2-methoxyphenyl)-3–(4-fluorophenethyl) urea], the inhibition at 10 µM was 30.2 ± 3.98%.

The same data set, now with this note: compounds 10 μM, 1 h, then LPS (0.5 μg/mL) 24 h.
“1–(5-acetyl-2-methoxyphenyl)-3–(4-fluorophenyl) urea [Compound B6]”: the “Inhibition rate±SD (%) against NO production” value was found to be 24.15±6.18%.
With “1–(5-acetyl-2-methoxyphenyl)-3–(2-fluorophenyl) urea [Compound B7]”, the “Inhibition rate±SD (%) against NO production” value was 15.69±4.15%.
On to “1–(5-acetyl-2-methoxyphenyl)-3–(4-methoxyphenyl) urea [Compound B10]”, for which the “Inhibition rate±SD (%) against NO production” value stood at 5.03± 6.25%.
With “1–(5-acetyl-2-methoxyphenyl)-3–(4-fluorobenzyl) urea [Compound C4]”, the “Inhibition rate±SD (%) against NO production” value is listed as 45.23±3.25%.

The subject of a further data set is RAW264.7 cells. The data set can be described thus: Cell viability assay (MTT), RAW264.7. The settings on record: 24 h, read-out: Cytotoxicity IC50 with RAW264.7. It counts as cell-based, mouse. The protocol:
(§1) RAW264.7 cells (1 × 10^4 cells/well) were seeded into 96-well plate and used for experiments after 24 h. Compounds (4 µM, 20 µM and 100 µM) treated cell for 24 h. Forty microliters of MTT solution (5 mg/mL, Sigma-Aldrich) was then added and incubated for an additional 4 h. After 4 h, cell culture supernatants were removed and DMSO (150 µL) was added into per well for dissolving the resulting crystals. Shaking about 1 0 ∼ 15 min and the absorbance at 492 nm was measured by a microplate reader (MQX200, Bio-Tek, Winooski, VT). At least three independent experiments were performed for the determination of IC50 values, which were shown as mean ± SD. All experimental data were analysed by using GraphPad Prism software, version 8.0 (GraphPad Inc.).
Regarding “1–(5-acetyl-2-methoxyphenyl)-3–(4-fluorophenyl) urea [Compound B6]”, the IC50 is > 100 µM.
Still for that read-out and setting: the figure for “1–(5-acetyl-2-methoxyphenyl)-3–(2-fluorophenyl) urea [Compound B7]” is > 100 µM.
Consider “1–(5-acetyl-2-methoxyphenyl)-3–(4-methoxyphenyl) urea [Compound B10]”, for which the half-inhibitory concentration (IC50) is > 100 µM.
“1–(5-acetyl-2-methoxyphenyl)-3–(4-fluorobenzyl) urea [Compound C4]”: the half-inhibitory concentration (IC50) was > 100 µM.

Test system in the next data set: not listed separately
The experiment in a line: Cell viability assay (MTT), RAW264.7. It counts as cell-based, mouse. The settings on record: mouse, RAW264.7 cells, read-out: Cytotoxicity IC50 with RAW264.7. Here is the method: as §1
Regarding `CNC(=O)Nc1cc(C(C)=O)c(O)cc1OC` [Compound A1, 1–(5-acetyl-4-hydroxy-2-methoxyphenyl)-3-methylurea], the 50% inhibitory concentration (IC50) at 24 h is > 100 µM.
Take `COc1cc(O)c(C(C)=O)cc1NC(=O)N1CCN(C)CC1` [Compound A10, N-(5-acetyl-4-hydroxy-2-methoxyphenyl)-4-methylpiperazine-1-carboxamide]: the IC50 at 24 h is > 100 µM.
The same measure, in the same setting: the figure for `COc1cc(O)c(C(C)=O)cc1NC(=O)NCc1ccco1` [Compound C7, 1–(5-acetyl-4-hydroxy-2-methoxyphenyl)-3-(furan-2-ylmethyl) urea] is > 100 µM; for `COc1cc(O)c(C(C)=O)cc1NC(=O)NCCc1ccc(F)cc1` [Compound D2, 1–(5-acetyl-4-hydroxy-2-methoxyphenyl)-3–(4-fluorophenethyl) urea] it is > 100 µM.

A further data set has as its system LO2 cells. The data set can be described thus: Cell viability assay (MTT), LO2. To be noted: 24 h, read-out: Cytotoxicity IC50 with LO2. Type of data set: cell-based.
Take “1–(5-acetyl-2-methoxyphenyl)-3–(4-fluorophenyl) urea [Compound B6]”: the 50% inhibitory concentration (IC50) is > 100 µM.
Still for that read-out and setting: the value for “1–(5-acetyl-2-methoxyphenyl)-3–(2-fluorophenyl) urea [Compound B7]” was > 100 µM; that for “1–(5-acetyl-2-methoxyphenyl)-3–(4-methoxyphenyl) urea [Compound B10]” was > 100 µM.
Consider “1–(5-acetyl-2-methoxyphenyl)-3–(4-fluorobenzyl) urea [Compound C4]”, for which the IC50 was > 100 µM.

Test system in another data set: not listed separately
The experiment in a line: Cell viability assay (MTT), LO2. Type of data set: cell-based. To be noted: human, LO2 cells, read-out: Cytotoxicity IC50 with LO2.
For `CNC(=O)Nc1cc(C(C)=O)c(O)cc1OC` [Compound A1, 1–(5-acetyl-4-hydroxy-2-methoxyphenyl)-3-methylurea], the half-maximal inhibitory concentration (IC50) at 24 h was > 100 µM.
On the same count and under the same terms, the value for `COc1cc(O)c(C(C)=O)cc1NC(=O)N1CCN(C)CC1` [Compound A10, N-(5-acetyl-4-hydroxy-2-methoxyphenyl)-4-methylpiperazine-1-carboxamide] was > 100 µM; that for `COc1cc(O)c(C(C)=O)cc1NC(=O)NCc1ccco1` [Compound C7, 1–(5-acetyl-4-hydroxy-2-methoxyphenyl)-3-(furan-2-ylmethyl) urea] was > 100 µM; that for `COc1cc(O)c(C(C)=O)cc1NC(=O)NCCc1ccc(F)cc1` [Compound D2, 1–(5-acetyl-4-hydroxy-2-methoxyphenyl)-3–(4-fluorophenethyl) urea] was > 100 µM.

The test system of another data set is IMQ-induced psoriasis mouse model. The experiment in a line: IMQ-induced psoriasis-like skin inflammation mouse model. Type of data set: in vivo, BALB/c mice. To be noted: 20 mg/kg, intragastric once a day, 7 days.
From the text: During treatment for 7 days, to score the severity of inflammation of mouse skin, an objective scoring system was developed based on the clinical psoriasis area and severity index. Erythema, scaling, and thickening were scored independently from 0 to 4 as follows: 0, none; 1, slight; 2, moderate; 3, marked; 4, very marked and weight loss. The cumulative score (erythema plus scaling plus thickening) served to indicate the severity of inflammation (scale 0 ∼ 12). On the 8th day, the mice were taken eyeball blood and back skin. One-half of the samples were immediately fixed in 4% paraformaldehyde and for haematoxylin and eosin (H&E) staining. The other samples were put in a −80 °C freezer. Before used, they were placed at room temperature for 30 min. After that, they were added 1 × PBS proportionally, homogenised and centrifuged. The supernatant was collected and used for ELISA assay and Western blot assay. […] The histological image was obtained using 3[sequence]’s Slide Converter (3[sequence], Hungary).
For the compound `C[C@@H]1C[C@H]2[C@@H]3CCC4=CC(=O)C=C[C@]4(C)[C@@]3(F)[C@@H](O)C[C@]2(C)[C@@]1(O)C(=O)CO` [dexamethasone, reference compound], the “Pathological reduction, H&E of skin tissue” value is on record as “high pathological reduction”.

Staying with this data set, now noted: B12 20 and 40 mg/kg, Dex 20 mg/kg, intragastric once a day, 7 days.
Take `C[C@@H]1C[C@H]2[C@@H]3CCC4=CC(=O)C=C[C@]4(C)[C@@]3(F)[C@@H](O)C[C@]2(C)[C@@]1(O)C(=O)CO` [dexamethasone, reference compound]: the “Experimental symptoms and PASI score” value was “significantly attenuated experimental symptoms and PASI score”.
